Assay results taken from patent US11566030B2, “Substituted 2,6-dihydropyrrolo[3,4-c]pyrazoles as pyruvate kinase activators” (priority 2021, dated 2023).
Like-named read-outs stand apart in the source and are kept apart here.

Molecular target: T1, Human pyruvate kinase R (PKR) (Homo sapiens, UniProt P30613)
T1 construct: Human pyruvate kinase R (PKR), residues 14-574; 6xHis-8xArg-SUMO (N, cleaved yes); host or cells: E. coli
Assay: Biochemical assay for activation of pyruvate kinase R (Kinase-Glo luminescence, ATP generation)
Details: for Emax: read-out: PKR % activation, maximal activation level achieved with each compound relative to the activation level achieved by AG-348 @ 10 μM
Procedure, shortened: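 Recombinant human PKR (residues 14-574) expressed in E. coli with His-Arg-SUMO tag, tag cleaved, purified by Ni-NTA, anion exchange and size exclusion. Activation read as ATP generation by Kinase-Glo luminescence.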

[1] = PKR AC50 (nM), 0.1 nM PKR, 0.3 mM ADP, 0.1 mM PEP, 1% DMSO

T1 sequence (P30613 14-574): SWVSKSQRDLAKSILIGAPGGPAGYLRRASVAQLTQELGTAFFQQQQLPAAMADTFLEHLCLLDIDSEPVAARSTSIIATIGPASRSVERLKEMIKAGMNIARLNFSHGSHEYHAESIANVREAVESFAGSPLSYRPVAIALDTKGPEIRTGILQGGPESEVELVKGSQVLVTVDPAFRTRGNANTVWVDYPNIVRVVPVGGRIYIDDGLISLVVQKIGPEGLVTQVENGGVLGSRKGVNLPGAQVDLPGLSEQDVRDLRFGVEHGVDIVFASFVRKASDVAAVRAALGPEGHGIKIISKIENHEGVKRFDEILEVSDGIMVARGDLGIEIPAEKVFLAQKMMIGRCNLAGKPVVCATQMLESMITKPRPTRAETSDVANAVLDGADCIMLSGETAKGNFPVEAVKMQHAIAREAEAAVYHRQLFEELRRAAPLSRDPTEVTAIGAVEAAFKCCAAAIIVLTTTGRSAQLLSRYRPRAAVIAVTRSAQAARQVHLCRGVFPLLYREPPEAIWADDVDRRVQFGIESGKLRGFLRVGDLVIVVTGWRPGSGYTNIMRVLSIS

Row | AC50 [1] | PKR % activation (maximal activation level achieved with each compound relative to the activation level achieved by AG-348 @ 10 μM) | Emax | AC50 | Compound
1 | > 10000 nM | 103% | – | – | O=C([C@H](OCCO)c1ccccc1F)N1Cc2cn(S(=O)(=O)c3ccn(CC(F)(F)F)n3)nc2C1 (single isomer, unassigned) [Compound 85]
2 | 240 nM | – | 120% | – | O=C([C@@H](CO)c1ccccc1)N1Cc2cn(S(=O)(=O)c3cnn(CC(F)F)c3)nc2C1 [Compound 122, (2R)-1-(2-{[1-(2,2-difluoroethyl)-1H-pyrazol-4-yl]sulfonyl}-2H,4H,5H,6H-pyrrolo[3,4-c]pyrazol-5-yl)-3-hydroxy-2-phenylpropan-1-one]
3 | 8.3 nM | – | 19% | – | Cc1cn(CC(F)F)nc1S(=O)(=O)n1cc2c(n1)CN(C(=O)C1(c3ncccc3Cl)COC1)C2 [Compound 82, 3-chloro-2-(3-{2-[1-(2,2-difluoroethyl)-4-methylpyrazol-3-ylsulfonyl]-4H,6H-pyrrolo[3,4-c]pyrazole-5-carbonyl}oxetan-3-yl)pyridine]
4 | – | – | 166% | 98 nM | COc1ccccc1[C@H](CO)C(=O)N1Cc2cn(S(=O)(=O)c3cnn(CC(F)F)c3)nc2C1 [Compound 121, (2R)-1-{2-[1-(2,2-difluoroethyl)pyrazol-4-ylsulfonyl]-4H,6H-pyrrolo[3,4-c]pyrazol-5-yl}-3-hydroxy-2-(2-methoxyphenyl)propan-1-one]
5 | – | – | 13% | 160 nM | O=C([C@H](CO)c1ccccc1)N1Cc2cn(S(=O)(=O)c3c[nH]c(C(F)(F)F)c3)nc2C1 [Compound 118, (2S)-3-hydroxy-2-phenyl-1-(2-{[5-(trifluoromethyl)-1H-pyrrol-3-yl]sulfonyl}-2H,4H,5H,6H-pyrrolo[3,4-c]pyrazol-5-yl)propan-1-one]
6 | 690 nM | – | 126% | – | Cc1c(S(=O)(=O)n2cc3c(n2)CN(C(=O)[C@@H](CO)c2ccccc2Cl)C3)cnn1CC(F)F [Compound 102, (2R)-2-(2-chlorophenyl)-1-{2-[1-(2,2-difluoroethyl)-5-methylpyrazol-4-ylsulfonyl]-4H,6H-pyrrolo[3,4-c]pyrazol-5-yl}-3-hydroxypropan-1-one]
7 | 680 nM | – | 0% | – | Cc1nn(CC(F)F)c(C)c1S(=O)(=O)n1cc2c(n1)CN(C(=O)[C@@H](CO)c1ccccc1)C2 [Compound 88, (2R)-1-[2-[1-(2,2-difluoroethyl)-3,5-dimethylpyrazol-4-ylsulfonyl]-4H,6H-pyrrolo[3,4-c]pyrazol-5-yl]-3-hydroxy-2-phenylpropan-1-one]
8 | – | – | 96% | 2100 nM | COC(C(=O)N1Cc2cn(S(=O)(=O)c3cnn(CC(F)F)c3)nc2C1)c1ncccc1F (stereo not drawn) [Compound 115, 1-(2-{[1-(2,2-difluoroethyl)-1H-pyrazol-4-yl]sulfonyl}-2H,4H,5H,6H-pyrrolo[3,4-c]pyrazol-5-yl)-2-(3-fluoropyridin-2-yl)-2-methoxyethan-1-one]
9 | – | – | 0% | – | COCCOc1ccccc1[C@@H](CO)C(=O)N1Cc2cn(S(=O)(=O)c3cnn(CC(F)F)c3)nc2C1 (single isomer, unassigned) [Compound 92]
10 | – | – | 59% | – | Cc1nn(CC(F)F)c(C)c1S(=O)(=O)n1cc2c(n1)CN(C(=O)[C@H](CO)c1ccccc1)C2 [Compound 87, (2S)-1-[2-[1-(2,2-difluoroethyl)-3,5-dimethylpyrazol-4-ylsulfonyl]-4H,6H-pyrrolo[3,4-c]pyrazol-5-yl]-3-hydroxy-2-phenylpropan-1-one]
11 | 560 nM | – | 121% | – | COc1ccccc1[C@H](CO)C(=O)N1Cc2cn(S(=O)(=O)c3cnn(CC(F)F)c3C)nc2C1 [Compound 104, (2R)-1-{2-[1-(2,2-difluoroethyl)-5-methylpyrazol-4-ylsulfonyl]-4H,6H-pyrrolo[3,4-c]pyrazol-5-yl}-3-hydroxy-2-(2-methoxyphenyl)propan-1-one]
12 | – | – | 73% | 2500 nM | O=C([C@@H](CO)c1ccccc1)N1Cc2cn(S(=O)(=O)c3cnn(CC(F)(F)F)c3)nc2C1 [Compound 84, (2R)-3-hydroxy-2-phenyl-1-{2-[1-(2,2,2-trifluoroethyl)pyrazol-4-ylsulfonyl]-4H,6H-pyrrolo[3,4-c]pyrazol-5-yl}propan-1-one]

The next lines start with the molecule.

Row | Compound | AC50 [1] | PKR % activation (maximal activation level achieved with each compound relative to the activation level achieved by AG-348 @ 10 μM) | Emax | AC50
13 | O=C([C@H](CO)c1ncccc1F)N1Cc2cn(S(=O)(=O)c3cnn(CC(F)F)c3)nc2C1 (single isomer, unassigned) [Compound 42] | 2100 nM | – | 102% | –
14 | Cc1cn(CC(F)(F)F)nc1S(=O)(=O)n1cc2c(n1)CN(C(=O)[C@H](CO)c1ccccc1)C2 [Compound 66, (2S)-3-hydroxy-1-{2-[4-methyl-1-(2,2,2-trifluoroethyl)pyrazol-3-ylsulfonyl]-4H,6H-pyrrolo[3,4-c]pyrazol-5-yl}-2-phenylpropan-1-one] | 120 nM | – | 0% | –
15 | Cc1cn(CC(F)F)nc1S(=O)(=O)n1cc2c(n1)CN(C(=O)[C@H](CO)c1ccccc1F)C2 [Compound 78, (2S)-1-{2-[1-(2,2-difluoroethyl)-4-methylpyrazol-3-ylsulfonyl]-4H,6H-pyrrolo[3,4-c]pyrazol-5-yl}-2-(2-fluorophenyl)-3-hydroxypropan-1-one] | – | – | 32% | 7.1 nM
16 | O=C([C@H](CO)c1ccccc1)N1Cc2cn(S(=O)(=O)c3cnn(CC(F)F)c3)nc2C1 [Compound 1, (2S)-1-(2-{[1-(2,2-difluoroethyl)-1H-pyrazol-4-yl]sulfonyl}-2H,4H,5H,6H-pyrrolo[3,4-c]pyrazol-5-yl)-3-hydroxy-2-phenylpropan-1-one] | 5.4 nM | – | 97% | –
17 | O=C([C@H](CO)c1ccccc1F)N1Cc2cn(S(=O)(=O)c3cnn(CCC(F)(F)F)c3)nc2C1 [Compound 58, (S)-2-(2-fluorophenyl)-3-hydroxy-1-(2-((1-(3,3,3-trifluoropropyl)-1H-pyrazol-4-yl)sulfonyl)-2,6-dihydropyrrolo[3,4-c]pyrazol-5(4H)-yl)propan-1-one] | – | – | 59% | 30 nM
18 | Cc1cn(CC(F)F)nc1S(=O)(=O)n1cc2c(n1)CN(C(=O)[C@H](CO)c1ccccc1)C2 [Compound 76, (2S)-1-{2-[1-(2,2-difluoroethyl)-4-methylpyrazol-3-ylsulfonyl]-4H,6H-pyrrolo[3,4-c]pyrazol-5-yl}-3-hydroxy-2-phenylpropan-1-one] | 3800 nM | – | 3% | –
19 | O=C([C@H](CO)c1cccc(F)c1Cl)N1Cc2cn(S(=O)(=O)c3cnn(CC(F)F)c3)nc2C1 [Compound 55, (2S)-2-(2-chloro-3-fluorophenyl)-1-{2-[1-(2,2-difluoroethyl)pyrazol-4-ylsulfonyl]-4H,6H-pyrrolo[3,4-c]pyrazol-5-yl}-3-hydroxypropan-1-one] | – | – | 98% | 5.1 nM
20 | Cc1c(S(=O)(=O)n2cc3c(n2)CN(C(=O)[C@H](CO)c2ccccc2F)C3)cnn1CC(F)F [Compound 14, (2S)-1-(2-{[1-(2,2-difluoroethyl)-5-methyl-1H-pyrazol-4-yl]sulfonyl}-2H,4H,5H,6H-pyrrolo[3,4-c]pyrazol-5-yl)-2-(2-fluorophenyl)-3-hydroxypropan-1-one] | – | – | 129% | 7.1 nM
21 | Cc1c(S(=O)(=O)n2cc3c(n2)CN(C(=O)[C@H](CO)c2ccccc2)C3)cnn1CC(F)F [Compound 11, (2S)-1-(2-{[1-(2,2-difluoroethyl)-5-methyl-1H-pyrazol-4-yl]sulfonyl}-2H,4H,5H,6H-pyrrolo[3,4-c]pyrazol-5-yl)-3-hydroxy-2-phenylpropan-1-one] | – | – | 92% | 5.7 nM
22 | Cc1noc(C)c1S(=O)(=O)n1cc2c(n1)CN(C(=O)[C@H](CO)c1ccccc1)C2 [Compound 16, (2S)-1-{2-[(3,5-dimethyl-1,2-oxazol-4-yl)sulfonyl]-2H,4H,5H,6H-pyrrolo[3,4-c]pyrazol-5-yl}-3-hydroxy-2-phenylpropan-1-one] | 1000 nM | – | 55% | –
23 | O=C([C@H](CO)c1ccccc1F)N1Cc2cn(S(=O)(=O)c3ccn(CC(F)F)n3)nc2C1 [Compound 12, (2S)-1-(2-{[1-(2,2-difluoroethyl)-1H-pyrazol-3-yl]sulfonyl}-2H,4H,5H,6H-pyrrolo[3,4-c]pyrazol-5-yl)-2-(2-fluorophenyl)-3-hydroxypropan-1-one] | 6.9 nM | – | 121% | –
24 | O=C([C@H](CO)c1ccccc1)N1Cc2cn(S(=O)(=O)c3ccn(CC(F)F)n3)nc2C1 [Compound 72, (2S)-1-{2-[1-(2,2-difluoroethyl)pyrazol-3-ylsulfonyl]-4H,6H-pyrrolo[3,4-c]pyrazol-5-yl}-3-hydroxy-2-phenylpropan-1-one] | – | – | 98% | 9.6 nM
25 | COCCn1ccc(S(=O)(=O)n2cc3c(n2)CN(C(=O)[C@H](CO)c2ccccc2F)C3)n1 [Compound 44, (2S)-2-(2-fluorophenyl)-3-hydroxy-1-[2-[1-(2-methoxyethyl)pyrazol-3-ylsulfonyl]-4H,6H-pyrrolo[3,4-c]pyrazol-5-yl]propan-1-one] | 110 nM | – | 53% | –
26 | C[C@H](O)[C@@H](C(=O)N1Cc2cn(S(=O)(=O)c3cnn(CC(F)(F)F)c3)nc2C1)c1ccccc1 [Compound 50, (2S,3S)-3-hydroxy-2-phenyl-1-{2-[1-(2,2,2-trifluoroethyl)pyrazol-4-ylsulfonyl]-4H,6H-pyrrolo[3,4-c]pyrazol-5-yl}butan-1-one] | 82 nM | – | 89% | –
27 | O=C(N1Cc2cn(S(=O)(=O)c3cnn(CC(F)F)c3)nc2C1)C1(c2ncccc2Cl)COC1 [Compound 8, 3-chloro-2-(3-[2-[1-(2,2-difluoroethyl)pyrazol-4-ylsulfonyl]-4H,6H-pyrrolo[3,4-c]pyrazole-5-carbonyl]oxetan-3-yl)pyridine] | 5.7 nM | – | 103% | –
28 | O=C([C@H](CO)c1ccccc1F)N1Cc2cn(S(=O)(=O)c3cnn(CCF)c3)nc2C1 [Compound 5, (2S)-1-(2-{[1-(2-fluoroethyl)-1H-pyrazol-4-yl]sulfonyl}-2H,4H,5H,6H-pyrrolo[3,4-c]pyrazol-5-yl)-2-(2-fluorophenyl)-3-hydroxypropan-1-one] | 2.7 nM | – | 88% | –
